# Measurements: patent US7198811B2, “Compositions for the preservation of fruits and vegetables” (University of Guelph, priority 2002, dated 2007)
# Tested on: Cortland apples
# Experiment: Superficial scald and softening in Cortland apples versus duration of dip treatment
# Assay type: in vivo
# Details: 1 minute, 1500 ppm; CA storage 9 months
# Experimental: The effects of antioxidant formulation of the present invention, and subgroups of its chemical components on post harvest qualities of Cortland apples were investigated.
# The effect of the duration of dip treatment of Cortland apples using the antioxidant formulation (Example 1, Solution B) is presented in Table 3C. Ten ml of the formulation of was diluted to a liter. […] Twenty randomly selected apples from each of the treatments were removed and kept at room temperature for a week before evaluations were conducted.
# Ten ml of the concentrate of the EAM formulation was diluted to one liter to form the final solution. […] Two bushels of apples were dipped in 40 liters of solution for each time period and subjected to controlled atmosphere storage as defined above. Apples were brought out after 9 months of storage. Twenty apples from each treatment were picked randomly from two independent sets, and left at room temperature for one week before evaluating for scald and softening.
# Ten ml of the concentrate of the AOX formulation was diluted to one liter to form the final solution. […] Two bushels of apples were dipped in 40 liters of solution for each time period and subjected to controlled atmosphere storage as defined above. Apples were brought out after 9 months of storage. […]
Structure (SMILES),Softening %,Superficial scald %
"c1ccc(Nc2ccccc2)cc1 [DPA, diphenylamine]",25%,35%

# Tested on: Vista Cherries
# Experiment: Postharvest dips of compositions or individual components on Vista cherries; also: dipped 2.5 min
# Assay type: in vivo
# Details: dipped […], concentration as printed per treatment; stored 4° C. in air
# Experimental: Samples were allowed to dry at room temperature and stored at 4° C. in air. Evaluations were conducted two weeks and four weeks after treatment. The results given are mean of twenty sample values.
Structure (SMILES),Firmness (kg) 2 weeks,Firmness (kg) 4 weeks,Soluble Solids (%) 2 weeks,Soluble Solids (%) 4 weeks
O=C1O[C@H]([C@@H](O)CO)C(O)=C1O [Ascorbic Acid],1.2 kg,1.12 kg,,
"c1ccc(CNc2ncnc3nc[nH]c23)cc1 [BA, benzyladenine]",1.24 kg,1.14 kg,13.8%,
"[Ca+2].[Cl-].[Cl-] [CaCl2, calcium chloride]",1.26 kg,1.09 kg,,
CC(C)=CCC/C(C)=C/CO [Geraniol],1.01 kg,1.24 kg,,17%
CC(=O)OC/C=C(\C)CCC=C(C)C [Geranyl Acetate],1.21 kg,1.12 kg,17%,
CCCCCC=O [Hexanal],1.24 kg,1.16 kg,,
Cc1c(C)c2c(c(C)c1O)CC[C@@](C)(CCC[C@H](C)CCC[C@H](C)CCCC(C)C)O2 [α-tocopherol],1.21 kg,1.12 kg,,16.7%
